For data set [1] the following is noted: intravenous administration, 240 mg; cited from earlier work.
Data set [2] concerns E. coli. Conditions: cited from earlier work.
The nature of data set [3]: serum and wound tissue gentamicin concentration by ELISA after local delivery through the surgical device. The settings on record: E-F group. In general terms: An ELISA detects its analyte on a solid surface through an enzyme-linked reagent.
Protocol: The 7 pigs were divided into two groups each: 1. Control (n=1) where no device was used and a sham procedure was performed. 2. “Experimental-No Fluid” (E-NF) group (n=3) where the surgical device was used without any irrigation delivered through the device in order to mimic conditions with other non-irrigating surgical retractors. 3. […] The irrigation fluid was delivered via gravity drainage from an IV bag hung on a pole at a height of 6 feet, and removal of fluid from the device was achieved via wall suction into a standard surgical canister. Both the fluid delivery and fluid removal mechanisms were integrated into the surgical device via separate tubing connections. The total time of irrigation averaged approximately 4 hours.
Experimental data was collected at two time points. Time 1 was after 4 hours of simulated surgery and/or irrigation and at the time of device removal. Time 2 was 4 hours after wound closure (e.g. at the time of wound reopening).
In the E-F group, peripheral blood samples were drawn by the anesthetists at Times 1 and 2. The blood was collected in serum-separator tubes and centrifuged. […] Two 4 mm×8 mm punch biopsies at each time point were taken, homogenized, and diluted in 1 mL phosphate buffered saline (PBS). The sample was centrifuged, and the supernatant was isolated for ELISA analysis.
Data set [4] can be described thus: finite-element (COMSOL) simulation of local gentamicin delivery to a retracted surgical wound. The settings on record: calculated model parameter, adipose wound tissue. From the text: In order to better understand the differences between systemic delivery and local delivery of therapeutic agents, a finite-element analysis software package (COMSOL) was used to generate a three dimensional (3D) model of a retracted surgical wound with a 12 cm incision. […] The 3D model shown in FIG. 23 was modeled in a Computer Aided Design (CAD) package (Solidworks) based on the geometry of the device and the retracted wound tissue in a cadaver.
Gentamicin, a member of the aminoglycoside family, was used as the antibiotic in the model due to its prevalence in clinical use to combat the enteric, gram-negative bacteria that cause wound infections. A concentration of 240 mg/L was delivered during the simulated 4 hr surgery based on standard clinical protocols.
where Φ, D, and C are the particle flux, diffusion coefficient, and concentration, respectively. […]
The diffusion coefficients of various solutes and solvents have been experimentally obtained and published. However, for solute-solvent combinations that have not been published or experimentally determined, the molecular weight of a given solute may be correlated to the diffusion coefficient in the same solvent using a logarithmic relation. […]
The simulation was run for four hours to mimic a standard colorectal procedure and the antibiotic flux and tissue concentration was recorded at each time step.

The subject of data set [5] is E. coli. In words: acute abdominal surgical model with E. coli contamination, quantitative wound tissue culture. The data set is classed as in vivo, pigs. The settings on record: E-F group. Here is the method: In the gentamicin group, the degree of systemic absorption of the antibiotic was quantified.
Seven female adult pigs weighing 50-70 kg were placed under general anesthesia and monitored for the duration of the experimental protocol. The abdomen was shaved, sterilely prepped with chlorhexidine solution, and draped under sterile conditions. A 12-cm periumbilical midline incision was made and the abdominal cavity was entered. After approximately 2.5 hours of wound retraction to simulate a prototypical length of time for colonic dissection, a gentamicin-sensitive E. coli suspension at a standardized concentration of 10^9 colony-forming units (CFU) in 10 mL normal saline was dripped onto the central colon. E. coli is classified as an enteric bacteria species. […]
FIGS. 28A-28B show the locations at which two swab samples were taken just prior to device removal (e.g. at Time 1). […] Colonies were identified as E. coli, enumerated, and recorded, and the results for serial dilutions were internally validated. […] Tissue culture results were expressed as colony-forming units (CFU) per gram. […]
Quantitative culture results were expressed in mean±standard deviation (SD). Statistical comparisons of quantitative culture results were performed using the Student's t-test. Significance was determined based on a value of p<0.05.

Data set [6] relates to gram-negative bacteria present in colorectal surgeries. Conditions: required to neutralize gram-negative bacteria present in colorectal surgeries; cited from earlier work.
Data set [7] has as its system E. coli. As to the kind of experiment: minimum inhibitory concentration of gentamicin, E. coli. It is filed as cell-based. From the text: The extent of absorption of a fluid or solute into the tissue may be a function of the rate of fluid delivery, concentration of solutes (if any) in the delivered fluid, physical characteristics of the solutes (if any), the porosity of the tissue, tortuousity of the tissue, systemic absorption via the capillary bed and subsequent renal clearance, and/or the time period over which the surgical device and delivered fluid are in contact with the wound tissues. […] The minimum inhibitory concentration (16 mg/L) was reached are the wound surface in about 3 minutes of fluid delivery. […] The surgical device may thus be able to reduce microbial growth in wounds even after being removed, which may result in a lower risk of developing a surgical site infection.
The surgical device may be used to deliver a therapeutic fluid to a wound tissue to maintain a constant therapeutic concentration in the tissue. The therapeutic concentration in the tissue may be maintained for a portion of or the entire duration of the surgical procedure. The concentration of the therapeutic agent (e.g. antibiotic) may be maintained within a pre-determined range. The pre-determined concentration may depend on the type of therapeutic used as described herein. […] The therapeutic concentration may be at or above the minimum inhibitory concentration. […]

For the substance gentamicin, the “peak tissue concentration relative to minimum inhibitory concentration” value in data set [1] is on record as 4.5 times. Further, in data set [1], the “time of peak tissue concentration after administration” value is listed as “roughly 20 minutes”. Further, the minimum inhibitory concentration with E. coli [2] is 16 µg/mL. Further, the “gentamicin concentration at the wound margins (tissue)” value stood at 0.97 ± 0.33 mg/kg in data set [3] (Time 1, punch biopsies of subcutaneous fat) and 0.60 ± 0.37 mg/kg in data set [3] (Time 2, punch biopsies of subcutaneous fat). In addition, the “Effective Diffusion Coefficient” value in data set [4] is 1.88E−6 cm^2/s. The “quantitative wound culture (E. coli) in tissue sample” value with E. coli [5] (240 mg gentamicin sulfate in 1 L saline through device, Time 1 (device removal)) is given as 1.25±1.55×10^2 CFU/gm; in the data set with E. coli [5] (Time 2 (4 hours after wound closure)) it was 2.08±3.01×10^2 CFU/gm. In addition, the “minimum inhibitory concentration (MIC)” value in data set [6] is on record as 0.003 mol/m^3. Further, the “delivered fluid concentration (240 mg/L) relative to typical minimum inhibitory concentration of E. coli” value in the data set on E. coli [7] is “about 60 time greater”.

(Values after patent publication US20170128059A1, “METHODS AND APPARATUS FOR PREVENTION OF SURGICAL SITE INFECTIONS” (priority 2015, published 2017).)
